Source: US20100130725A1, “METHODS FOR CHARACTERIZING MOLECULES” (priority 2008, published 2010)

Legend:
A431 cells = experiment: EGF-induced DMR signal in partially quiescent A431 cells (20 hr in 0.1% fetal bovine serum); assay type: cell-based, human; conditions: partially quiescent A431, 20 hour starvation in 0.1% fetal bovine serum
From the text: EGFR belongs to the family of receptor tyrosine kinases. EGF binds to and stimulates the intrinsic protein-tyrosine kinase activity of EGFR, initiating a signal transduction cascade, principally involving the MAPK, […] and JNK pathways. Upon EGF stimulation, there are many events leading to mass redistribution in A431 cells—a cell line endogenously over-expressing EGFRs. It is known that EGFR signaling depends on cellular status. As a result, the EGF-induced DMR signals are also dependent on the cellular status. In quiescent cells obtained through 20 hr culturing in 0.1% fetal bovine serum, EGF stimulation leads to a DMR signal with three distinct and sequential phases: (i) a positive phase with increased signal (P-DMR), (ii) a transition phase, and (iii) a decay phase (N-DMR). […]
An Epic® cellular assay was conducted on partially quiescent A431 cells obtained through 1 day culture with serum containing medium followed by 20 hour starvation culturing in a medium containing 0.1% fetal bovine serum. […] Chemical biology and cell biology studies have shown that this EGF-induced DMR signal is primarily linked to the Ras/MAPK pathway, which proceeds through MEK and leads to cell detachment (Fang, Y., et al., (2005) “Characteristics of dynamic mass redistribution of EGF receptor signaling in living cells measured with label free optical biosensors”. Anal. Chem., 77, 5720-5725).

quiescent A431 cells = experiment: Epic RWG biosensor DMR assay, agonist mode (primary profile), quiescent A431 cells; assay type: cell-based, human
Experimental: All cell lines were obtained from American Type Cell Culture (Manassas, Va.). The cell culture medium was as follows: Dulbecco's modified Eagle's medium (DMEM) supplemented with 10% fetal bovine serum (FBS), 4.5 g/liter glucose, 2 mM glutamine, and antibiotics for human epidermoid carcinoma A431 and human lung carcinoma A549.
Cells were typically grown using ˜1 to 2×10^4 cells per well at passage 3 to 15 suspended in 50 μl of the corresponding culture medium in the biosensor microplate, and were cultured at 37° C. under air/5% CO2 for ˜1 day. Except for A431, which was subject to ˜20 hr starvation through continuous culture in the serum-free DMEM, the other cell types were directly assayed without starvation. The confluency for all cells at the time of assays was ˜95% to 100%.
Epic® wavelength interrogation system (Corning Inc., Corning, N.Y.) was used for whole cell sensing. This system consists of a temperature-control unit, an optical detection unit, and an on-board liquid handling unit with robotics. The detection unit is centered on integrated fiber optics, and enables kinetic measures of cellular responses with a time interval of ˜15 sec.
The RWG biosensor is capable of detecting minute changes in local index of refraction near the sensor surface. Since the local index of refraction within a cell is a function of density and its distribution of biomass (e.g., proteins, molecular complexes), the biosensor exploits its evanescent wave to non-invasively detect ligand-induced dynamic mass redistribution in native cells. […]
For biosensor cellular assays, molecule solutions were made by diluting the stored concentrated solutions with the HBSS (1× Hanks balanced salt solution, plus 20 mM Hepes, pH 7.1), and transferred into a 384 well polypropylene molecule storage plate to prepare a molecule source plate. […] Both the cell assay plate and the molecule and marker source plate(s) were then incubated in the hotel of the reader system. After ˜1 hr of incubation the baseline wavelengths of all biosensors in the cell assay microplate were recorded and normalized to zero. […]

epidermal growth factor [EGF]
DMR signal triggered by EGF (A431 cells): DMR signal with two distinct and sequential phases | EC80 for triggering the DMR signal (quiescent A431 cells; fully quiescent A431 cells): ~32 nM | DMR signal triggered by EGF (quiescent A431 cells; fully quiescent A431 cells, EGF 32 nM, average of 32 replicates): distinct and robust DMR signal | DMR response as a function of EGF dose (quiescent A431 cells; quiescent A431 cells, data not shown): dose-dependent response
